Reference: ChEMBL document CHEMBL6103581, “Identification of Thieno[3,2-d]pyrimidine derivatives as potent and selective Janus Kinase 1 inhibitors” (Eur J Med Chem, 2025)

Tests used:
Type in all cases: functional
NCI-H2087 = assay: Antiproliferative activity against human NCI-H2087 cells assessed as cell growth inhibition incubated for 72 hrs by Cell-TiterGlo assay
BaF3 = assay: Antiproliferative activity against mouse parental BaF3 cells assessed as cell growth inhibition incubated for 72 hrs by Cell-TiterGlo assay
[1] = Antiproliferative activity against mouse Ba/F3-TEL-JAK1 cells assessed as cell growth inhibition incubated for 72 hrs by Cell-TiterGlo assay
NCI-H1975 = assay: Antiproliferative activity against human NCI-H1975 cells assessed as cell growth inhibition incubated for 72 hrs by Cell-TiterGlo assay

SMILES: COc1nn(C)cc1Nc1ncc2scc(-c3cccc(NC(=O)[C@@H](C)N4CCN(C(C)C)CC4)c3)c2n1
- GI50 (NCI-H2087): 3.61 µM
- GI50 (BaF3): 1.05 µM
- GI50 [1]: 0.519 µM
- GI50 (NCI-H1975): 15.4 µM

SMILES: COc1nn(C)cc1Nc1ncc2scc(-c3cccc(NC(=O)[C@H]4CCCN4S(C)(=O)=O)c3)c2n1
- GI50 (NCI-H2087): 9.5 µM
- GI50 (BaF3): 6.16 µM
- GI50 [1]: 3.1 µM
- GI50 (NCI-H1975): 8.98 µM

SMILES: COc1nn(C)cc1Nc1ncc2scc(-c3cccc(NC(=O)[C@@H](C)N4CCN(C(C)=O)CC4)c3)c2n1
- GI50 (NCI-H2087): 21.1 µM
- GI50 (BaF3): 1.69 µM
- GI50 [1]: 1.89 µM
- GI50 (NCI-H1975): 23.6 µM

SMILES: COc1nn(C)cc1Nc1ncc2scc(-c3cccc(NC(=O)[C@@H](C)N4CCN(C(=O)C(F)(F)F)CC4)c3)c2n1
- GI50 (NCI-H2087): 3.48 µM
- GI50 (BaF3): 1.04 µM
- GI50 [1]: 0.351 µM
- GI50 (NCI-H1975): 7.36 µM

SMILES: C=CC(=O)N1CCN([C@H](C)C(=O)Nc2cccc(-c3csc4cnc(Nc5cn(C)nc5OC)nc34)c2)CC1
- GI50 (NCI-H2087): 10.5 µM
- GI50 (BaF3): 1.62 µM
- GI50 [1]: 1.7 µM
- GI50 (NCI-H1975): 13.5 µM

SMILES: C=CC(=O)N1C[C@H](Nc2ncnc3[nH]ccc23)CC[C@@H]1C [RITLECITINIB]
- GI50 (NCI-H2087): > 50 µM
- GI50 (BaF3): > 50 µM
- GI50 [1]: > 50 µM
- GI50 (NCI-H1975): > 50 µM

SMILES: COc1n[nH]cc1Nc1ncc2scc(-c3cccc(NC(=O)[C@@H](C)N4CCN(C)CC4)c3)c2n1
- GI50 (NCI-H2087): 8.62 µM
- GI50 (BaF3): 1.24 µM
- GI50 [1]: 0.62 µM
- GI50 (NCI-H1975): 16.5 µM

SMILES: COc1nn(C(C)=O)cc1Nc1ncc2scc(-c3cccc(NC(=O)[C@@H](C)N4CCN(C)CC4)c3)c2n1
- GI50 (NCI-H2087): 3.28 µM
- GI50 (BaF3): 2.27 µM
- GI50 [1]: 2.42 µM
- GI50 (NCI-H1975): 4.61 µM

SMILES: Cc1cc(Nc2ncc3scc(-c4cccc(NC(=O)[C@@H](C)N5CCN(C)CC5)c4)c3n2)n(C)n1
- GI50 (NCI-H2087): 7.05 µM
- GI50 (BaF3): 4.26 µM
- GI50 [1]: 1.6 µM
- GI50 (NCI-H1975): 7.34 µM

SMILES: COc1nn(C)cc1Nc1ncc2scc(-c3cccc(NC(=O)[C@H]4CCCN4C4CCN(C)CC4)c3)c2n1
- GI50 (NCI-H2087): 4.26 µM
- GI50 (BaF3): 2.25 µM
- GI50 [1]: 1.61 µM
- GI50 (NCI-H1975): 11 µM

SMILES: COc1nn(C)cc1Nc1ncc2scc(-c3cccc(NC(=O)[C@@H]4CCCN4)c3)c2n1
- GI50 (NCI-H2087): 3.74 µM
- GI50 (BaF3): 3.33 µM
- GI50 [1]: 1.22 µM
- GI50 (NCI-H1975): 8.86 µM

SMILES: COc1nn(C)cc1Nc1ncc2scc(-c3cccc(NS(C)(=O)=O)c3)c2n1
- GI50 (NCI-H2087): 8.22 µM
- GI50 (BaF3): 0.781 µM
- GI50 [1]: 0.659 µM
- GI50 (NCI-H1975): 4.53 µM

SMILES: C[C@H](C(=O)Nc1cccc(-c2csc3cnc(Nc4cccnc4O)nc23)c1)N1CCN(C)CC1
- GI50 (NCI-H2087): 13.5 µM
- GI50 (BaF3): 6.16 µM
- GI50 [1]: 7.31 µM
- GI50 (NCI-H1975): 18.5 µM

SMILES: COc1nn(C)cc1Nc1ncc2scc(-c3cccc(NC(=O)[C@@H](C)N4CCN(C(=O)CC#N)CC4)c3)c2n1
- GI50 (NCI-H2087): 23.3 µM
- GI50 (BaF3): 3.98 µM
- GI50 [1]: 2.44 µM
- GI50 (NCI-H1975): 40.3 µM

SMILES: COc1ncccc1Nc1ncc2scc(-c3cccc(NC(=O)[C@@H](C)N4CCN(C)CC4)c3)c2n1
- GI50 (NCI-H2087): 3.27 µM
- GI50 (BaF3): 2.59 µM
- GI50 [1]: 1.77 µM
- GI50 (NCI-H1975): 10.5 µM

SMILES: COc1nn(CCO)cc1Nc1ncc2scc(-c3cccc(NC(=O)[C@@H](C)N4CCN(C)CC4)c3)c2n1
- GI50 (NCI-H2087): 5.57 µM
- GI50 (BaF3): 1.04 µM
- GI50 [1]: 0.809 µM
- GI50 (NCI-H1975): 10.4 µM

SMILES: C[C@H](C(=O)Nc1cccc(-c2csc3cnc(Nc4nnn(C)n4)nc23)c1)N1CCN(C)CC1
- GI50 (NCI-H2087): 6.47 µM
- GI50 (BaF3): 6.09 µM
- GI50 [1]: 7.17 µM
- GI50 (NCI-H1975): 27.9 µM

SMILES: COc1nn(C)cc1Nc1ncc2scc(-c3cccc(NC(=O)[C@@H](C)N4CCNCC4)c3)c2n1
- GI50 (NCI-H2087): 1.66 µM
- GI50 (BaF3): 0.507 µM
- GI50 [1]: 0.188 µM
- GI50 (NCI-H1975): 4.26 µM

SMILES: COc1nn(C)cc1Nc1ncc2scc(-c3cccc(NC(=O)[C@@H](C)N4CCN(S(C)(=O)=O)CC4)c3)c2n1
- GI50 (NCI-H2087): 22.2 µM
- GI50 (BaF3): 3.77 µM
- GI50 [1]: 2.45 µM
- GI50 (NCI-H1975): 20.2 µM

SMILES: C[C@H](C(=O)Nc1cccc(-c2csc3cnc(Nc4cccc(S(C)(=O)=O)c4F)nc23)c1)N1CCN(C)CC1
- GI50 (NCI-H2087): 6.28 µM
- GI50 (BaF3): 0.677 µM
- GI50 [1]: 0.641 µM
- GI50 (NCI-H1975): 12.6 µM
